The data set is described as follows: Apparent and compacted bulk density (mass/volume, meshes 30, 80, 100). The data set is classed as physicochemical. An excerpt: 2.—Apparent and compacted bulk density; for the test calcium gluconolactonate, from formula III, was classified in 3 different types of mesh 30, 80, and 100 to determine its apparent density. The same procedure was used to determine compacted bulk density. The compound was classified in the same 30, 80, and 100 meshes, determining its density, in both cases, in grams per milliliter, as shown in table II below:
The average density corresponds to a 30 mesh, for the most common form of the product. A table is attached with different tests performed to determine the average apparent and compacted bulk density, resulting, in the first case, in a[n apparent] density of 0.690 and a compacted bulk density of 0.883, as shown in table III below: […]

Where [1] appears, read: 30 mesh, average of tests 1 to 31.

For `CC(O)C(=O)[O-].O=C([O-])[C@H](O)[C@@H](O)[C@H](O)[C@H](O)CO.[Ca+2]` [calcium gluconolactate], for the setting “30 mesh, Mass/Volume”, the “Apparent Density (30 mesh)” value was 0.690 g/mL and the “Compacted Bulk Density (30 mesh)” value is 0.883 g/mL. Under setting [1], the “Apparent density, average” value amounted to 0.690 and the “Compacted Bulk density, average” value is 0.883. Where the note is “80 mesh, Mass/Volume”, the “Apparent Density (80 mesh)” value came to 0.655 g/mL and the “Compacted Bulk Density (80 mesh)” value was found to be 0.904 g/mL. For the same molecule, under “100 mesh, Mass/Volume”, the “Apparent Density (100 mesh)” value was 0.609 g/mL and the “Compacted Bulk Density (100 mesh)” value was found to be 0.874 g/mL.

For the origin of these results see patent US7781407B2, “Calcium gluconolactate compositions and methods of making same” (priority 2002, dated 2010).
